Experimental findings from PubChem BioAssay (NCI) are described below.

Molecules are shown by their SMILES.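 Exposure lasted 48 hours, with cells grown in 96-well plates and compounds tested at five concentrations. Abbreviation: GI50, concentration required for 50% inhibition of growth. TGI: concentration producing complete growth inhibition.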

For one experiment, the system named is A549 NSCLC. The experiment is described as follows: NCI anticancer screen, dose series, 48 h.
Consider `C[C@]12CCc3sc(Nc4ccc(OC(F)(F)F)cc4)nc3C1=CC[C@@H]1[C@@H]2CC[C@]2(C)C(=O)CC[C@@H]12`, for which the GI50 was 3.35 µM and the TGI came out at 16.1 µM.

Consider `CCN1C(=O)c2ccc3c4c(ccc(c24)C1=O)C(=O)N(CCCNCc1ccccc1OC)C3=O`, for which the GI50 is 0.78 µM and the TGI came to 2.49 µM.

Turning to `COc1ccc2c(c1)C(=O)CCc1cc(OC)c(OC)c(OC)c1-2`, the GI50 was < 0.01 µM and the TGI is > 100 µM.

With `COc1ccc2c(c1)OC1=C(C(=O)OC1)C2c1cc(OC)c2c(c1)OCCO2` (configuration not stated), the GI50 is 0.0603 µM and the TGI was > 100 µM.

Regarding `CN(C)CCOc1ccc([N+](=O)[O-])c2cccnc12`, the TGI was > 100 µM.

For `CCN(CC)CCNC(Cc1ccccc1)c1ccc(OCc2ccccc2)cc1` (configuration not stated), the GI50 is 7.74 µM and the TGI was 22 µM.

For `C=C(C)[C@@H]1CC[C@]2(COCCCN)CC[C@]3(C)[C@H](CC[C@@H]4[C@@](C)(CCCNCCCN)[C@H](C(=C)C)CC[C@]43C)[C@@H]12`, the GI50 was 1.89 µM and the TGI was 3.63 µM.

In the case of `O=NNc1ccc2ccccc2n1`, the TGI is > 100 µM.

As for `Cc1ccc(S(=O)(=O)N=Nc2c(O)[nH]c3cc(O)c(C(=O)O)cc23)cc1`, the TGI is > 100 µM.

The next experiment deals with ACHN renal. The experiment is described as follows: NCI anticancer screen, dose series, 48 h.
Regarding `C[C@]12CCc3sc(Nc4ccc(OC(F)(F)F)cc4)nc3C1=CC[C@@H]1[C@@H]2CC[C@]2(C)C(=O)CC[C@@H]12`, the GI50 was 3.27 µM and the TGI turned out to be 10.8 µM.

`CCN1C(=O)c2ccc3c4c(ccc(c24)C1=O)C(=O)N(CCCNCc1ccccc1OC)C3=O`: the GI50 is 0.553 µM and the TGI is 4.63 µM.

For `CN(C)C/C=C/C(=O)Nc1ccc(C(=O)N[C@@]2(C)CCC[C@@H](Nc3ncc(Cl)c(-c4c[nH]c5ccccc45)n3)C2)nc1`, the GI50 was < 0.0108 µM and the TGI is 0.741 µM.

Turning to `COc1ccc2c(c1)C(=O)CCc1cc(OC)c(OC)c(OC)c1-2`, the GI50 is 0.0505 µM and the TGI was > 100 µM.

As for `COc1ccc2c(c1)OC1=C(C(=O)OC1)C2c1cc(OC)c2c(c1)OCCO2` (configuration not stated), the GI50 is 0.122 µM and the TGI is > 100 µM.

On to `CN(C)CCOc1ccc([N+](=O)[O-])c2cccnc12`, for which the TGI was > 100 µM.

Turning to `CCN(CC)CCNC(Cc1ccccc1)c1ccc(OCc2ccccc2)cc1` (configuration not stated), the GI50 was 7.85 µM and the TGI turned out to be 21.6 µM.

As to `C=C(C)[C@@H]1CC[C@]2(COCCCN)CC[C@]3(C)[C@H](CC[C@@H]4[C@@](C)(CCCNCCCN)[C@H](C(=C)C)CC[C@]43C)[C@@H]12`, the GI50 is 1.75 µM and the TGI worked out at 3.13 µM.

Take `O=NNc1ccc2ccccc2n1`: the TGI is > 100 µM.

Take `Cc1ccc(S(=O)(=O)N=Nc2c(O)[nH]c3cc(O)c(C(=O)O)cc23)cc1`: the TGI is > 100 µM.

The test system of a further experiment is DU-145 prostate. The experiment is described as follows: NCI anticancer screen, dose series, 48 h.
For `C[C@]12CCc3sc(Nc4ccc(OC(F)(F)F)cc4)nc3C1=CC[C@@H]1[C@@H]2CC[C@]2(C)C(=O)CC[C@@H]12`, the GI50 is 4.31 µM and the TGI was 25.1 µM.

`CCN1C(=O)c2ccc3c4c(ccc(c24)C1=O)C(=O)N(CCCNCc1ccccc1OC)C3=O`: the GI50 was 1.22 µM and the TGI is 2.5 µM.

`CN(C)C/C=C/C(=O)Nc1ccc(C(=O)N[C@@]2(C)CCC[C@@H](Nc3ncc(Cl)c(-c4c[nH]c5ccccc45)n3)C2)nc1`: the GI50 was 0.0153 µM and the TGI is 1.09 µM.

On to `COc1ccc2c(c1)C(=O)CCc1cc(OC)c(OC)c(OC)c1-2`, for which the GI50 is < 0.01 µM.

On to `COc1ccc2c(c1)OC1=C(C(=O)OC1)C2c1cc(OC)c2c(c1)OCCO2` (configuration not stated), for which the GI50 was 0.0915 µM.

Take `CN(C)CCOc1ccc([N+](=O)[O-])c2cccnc12`: the TGI was > 100 µM.

For `CCN(CC)CCNC(Cc1ccccc1)c1ccc(OCc2ccccc2)cc1` (configuration not stated), the GI50 is 8.54 µM and the TGI amounted to 21.1 µM.

In the case of `C=C(C)[C@@H]1CC[C@]2(COCCCN)CC[C@]3(C)[C@H](CC[C@@H]4[C@@](C)(CCCNCCCN)[C@H](C(=C)C)CC[C@]43C)[C@@H]12`, the GI50 was 1.92 µM and the TGI was 3.43 µM.

In the case of `O=NNc1ccc2ccccc2n1`, the TGI is > 100 µM.

Take `Cc1ccc(S(=O)(=O)N=Nc2c(O)[nH]c3cc(O)c(C(=O)O)cc23)cc1`: the TGI is > 100 µM.

For the next experiment, the system named is HOP-92 NSCLC. Briefly: NCI anticancer screen, dose series, 48 h.
With `C[C@]12CCc3sc(Nc4ccc(OC(F)(F)F)cc4)nc3C1=CC[C@@H]1[C@@H]2CC[C@]2(C)C(=O)CC[C@@H]12`, the GI50 is 1.43 µM and the TGI was 3.44 µM.

With `CCN1C(=O)c2ccc3c4c(ccc(c24)C1=O)C(=O)N(CCCNCc1ccccc1OC)C3=O`, the GI50 is 2.6 µM and the TGI turned out to be 5.5 µM.

As to `CN(C)C/C=C/C(=O)Nc1ccc(C(=O)N[C@@]2(C)CCC[C@@H](Nc3ncc(Cl)c(-c4c[nH]c5ccccc45)n3)C2)nc1`, the GI50 was < 0.0109 µM and the TGI is 0.041 µM.

With `COc1ccc2c(c1)OC1=C(C(=O)OC1)C2c1cc(OC)c2c(c1)OCCO2` (configuration not stated), the GI50 was 0.0629 µM and the TGI is > 100 µM.

`C=C(C)[C@@H]1CC[C@]2(COCCCN)CC[C@]3(C)[C@H](CC[C@@H]4[C@@](C)(CCCNCCCN)[C@H](C(=C)C)CC[C@]43C)[C@@H]12`: the GI50 is 1.36 µM and the TGI is 2.84 µM.

In the next experiment the test system is MOLT-4 leukemia. Briefly: NCI anticancer screen, dose series, 48 h.
Consider `C[C@]12CCc3sc(Nc4ccc(OC(F)(F)F)cc4)nc3C1=CC[C@@H]1[C@@H]2CC[C@]2(C)C(=O)CC[C@@H]12`, for which the GI50 was 1.53 µM and the TGI stood at 11.9 µM.

In the case of `CCN1C(=O)c2ccc3c4c(ccc(c24)C1=O)C(=O)N(CCCNCc1ccccc1OC)C3=O`, the GI50 was 0.891 µM and the TGI is 4.37 µM.

As for `CN(C)C/C=C/C(=O)Nc1ccc(C(=O)N[C@@]2(C)CCC[C@@H](Nc3ncc(Cl)c(-c4c[nH]c5ccccc45)n3)C2)nc1`, the GI50 was 0.0178 µM and the TGI came to 1.12 µM.

Turning to `COc1ccc2c(c1)C(=O)CCc1cc(OC)c(OC)c(OC)c1-2`, the GI50 was < 0.01 µM and the TGI is 35.4 µM.

On to `COc1ccc2c(c1)OC1=C(C(=O)OC1)C2c1cc(OC)c2c(c1)OCCO2` (configuration not stated), for which the GI50 is 0.182 µM and the TGI is > 100 µM.

`CN(C)CCOc1ccc([N+](=O)[O-])c2cccnc12`: the TGI was > 100 µM.

Take `CCN(CC)CCNC(Cc1ccccc1)c1ccc(OCc2ccccc2)cc1` (configuration not stated): the GI50 is 3.43 µM and the TGI was 13.2 µM.

On to `C=C(C)[C@@H]1CC[C@]2(COCCCN)CC[C@]3(C)[C@H](CC[C@@H]4[C@@](C)(CCCNCCCN)[C@H](C(=C)C)CC[C@]43C)[C@@H]12`, for which the GI50 is 1.96 µM and the TGI was found to be 4.47 µM.

Regarding `O=NNc1ccc2ccccc2n1`, the TGI is > 100 µM.

`Cc1ccc(S(=O)(=O)N=Nc2c(O)[nH]c3cc(O)c(C(=O)O)cc23)cc1`: the TGI was > 100 µM.

The test system of the next experiment is NCI-H226 lung. The experiment is described as follows: NCI anticancer screen, dose series, 48 h.
For `C[C@]12CCc3sc(Nc4ccc(OC(F)(F)F)cc4)nc3C1=CC[C@@H]1[C@@H]2CC[C@]2(C)C(=O)CC[C@@H]12`, the GI50 was 6.37 µM and the TGI was 44.1 µM.

With `CCN1C(=O)c2ccc3c4c(ccc(c24)C1=O)C(=O)N(CCCNCc1ccccc1OC)C3=O`, the GI50 was 1.28 µM and the TGI turned out to be 2.77 µM.

As for `COc1ccc2c(c1)C(=O)CCc1cc(OC)c(OC)c(OC)c1-2`, the GI50 was < 0.01 µM.

Turning to `CN(C)CCOc1ccc([N+](=O)[O-])c2cccnc12`, the TGI is > 100 µM.

Consider `CCN(CC)CCNC(Cc1ccccc1)c1ccc(OCc2ccccc2)cc1` (configuration not stated), for which the GI50 was 13.8 µM and the TGI came out at 34.8 µM.

For the molecule `O=NNc1ccc2ccccc2n1`, the TGI is > 100 µM.

For `Cc1ccc(S(=O)(=O)N=Nc2c(O)[nH]c3cc(O)c(C(=O)O)cc23)cc1`, the TGI was > 100 µM.

A further experiment relates to NCI-H522 lung. The experiment is described as follows: NCI anticancer screen, dose series, 48 h.
Consider `C[C@]12CCc3sc(Nc4ccc(OC(F)(F)F)cc4)nc3C1=CC[C@@H]1[C@@H]2CC[C@]2(C)C(=O)CC[C@@H]12`, for which the GI50 was 2.14 µM and the TGI was found to be 4.56 µM.

For the molecule `CCN1C(=O)c2ccc3c4c(ccc(c24)C1=O)C(=O)N(CCCNCc1ccccc1OC)C3=O`, the GI50 is 1.19 µM and the TGI is 2.68 µM.

As to `CN(C)C/C=C/C(=O)Nc1ccc(C(=O)N[C@@]2(C)CCC[C@@H](Nc3ncc(Cl)c(-c4c[nH]c5ccccc45)n3)C2)nc1`, the GI50 is 0.0178 µM and the TGI came out at 0.0664 µM.

As to `CN(C)CCOc1ccc([N+](=O)[O-])c2cccnc12`, the TGI was > 100 µM.

Turning to `CCN(CC)CCNC(Cc1ccccc1)c1ccc(OCc2ccccc2)cc1` (configuration not stated), the GI50 is 10.2 µM and the TGI is 22.7 µM.

For `C=C(C)[C@@H]1CC[C@]2(COCCCN)CC[C@]3(C)[C@H](CC[C@@H]4[C@@](C)(CCCNCCCN)[C@H](C(=C)C)CC[C@]43C)[C@@H]12`, the GI50 is 1.88 µM and the TGI was 3.78 µM.

On to `O=NNc1ccc2ccccc2n1`, for which the TGI is > 100 µM.

For the molecule `Cc1ccc(S(=O)(=O)N=Nc2c(O)[nH]c3cc(O)c(C(=O)O)cc23)cc1`, the TGI was > 100 µM.
